Reference: patent US7858579B2, “Thermoprotective compositions of pkg pathway inhibitors and method of use thereof” (priority 2005, dated 2010)

Experiments:
[1] = test system: ventilatory pattern generator of the locust, Locusta migratoria; assay: Hyperthermic failure and recovery of locust ventilatory motor pattern; format: in vivo; details: for thermotolerance of neural function (failure temperature, FIG. 7A): 1 μM KT5823, 1 μM Cantharidin, 40 μM 8-Bromo cGMP
Experimental: To determine if the thermoprotective consequences of PKG manipulations also apply to central circuitry and motor pattern generation, the thermotolerance of the ventilatory pattern generator was measured (Robertson, R. M. 2004) of the locust, Locusta migratoria. […] Ventilatory arrhythmias (Arr) in untreated animals prior to hyperthermic failure are rarely seen in preparations treated with the PKG inhibitor (FIG. 4.). At failure, temperature was returned to room temperature and time to recovery recorded. Pretreated controls recover after 180.2±42.4 sec whereas KT5823-pretreated animals recover after 62.3±13.4 sec. […] Once ventilatory pattern failure occurs during a temperature ramp, heating was terminated and the motor pattern was monitored until recovery.
Male locusts aged 4-6 weeks were dissected and pinned on a cork board; overlying tissue was removed exposing the metathoracic ganglion. Standard locust saline was superfused and heated at a rate of 5° C./2 min. until motor pattern failure, after which saline was allowed to return to room temperature. Ventilatory motor patterns were monitored using an EMG electrode on muscle 161 in the second abdominal segment. Pressure injection (32±13.5 nL, 10 psi, 150 ms) into the ventilatory neuropil was with a glass microelectrode filled with either 1 μM KT5823 in standard locust saline or locust saline alone (sham treatment) 10 min. (pretreated) before, or during (acutely treated; ˜3 min. before failure in controls) the temperature ramp.
FIGS. 7 to 8 illustate hyperthermic failure of locust ventilatory motor pattern generation. FIG. 8 illustrates sample traces of the ventilatory rhythm recorded from an abdominal expiratory muscle in a control locust. The ventilatory arrhythmias prior to failure should be noted. At failure, temperature was allowed to return to room temperature and time to recovery was recorded. The ventilatory motor pattern after recovery is at a lower frequency than just prior to failure because the temperature is lower. […] Significant differences were found across all groups (ANOVA F(9,105)=13.160, p<0.001). […] Here too significant differences were found across all groups (ANOVA […], p<0.001) N>5 for all treatments. […] Error bars represent SEM.

febrile seizures = details: intermittent treatment of febrile seizures; cited from earlier work
[2] = test system: ventilatory pattern generator of the locust, Locusta migratoria; assay: Hyperthermic failure and recovery of locust ventilatory motor pattern; format: in vivo

In the case of `CC12C(=O)OC(=O)C1(C)C1CCC2O1` (stereo not shown) [Cantharidin, Hexahydro-3a,7a-dimethyl-4,7-epoxyisobenzofuran-1,3-dione], the “thermotolerance in HS animals given 8-Bromo cGMP plus Cantharidin” value ([1]; 1 μM Cantharidin with 40 μM 8-Bromo cGMP, HS animals) is reported as “counteracted the effect of 8-Bromo cGMP in HS animals thereby inducing maximal thermotolerance” and the “thermotolerance of neural function (failure temperature, FIG. 7A)” value (“thermotolerance of neural function” below) [1] is reported as “increased the thermotolerance of neural function”.

For `CN1C(=O)CN=C(c2ccccc2)c2cc(Cl)ccc21` [diazepam], the “reduction in risk per patient year” value (febrile seizures) is given as 44%.

For `Nc1ncnc2c1ncn2[C@@H]1O[C@@H]2COP(O)(=S)O[C@H]2[C@H]1O` (stereo partly shown) [RP-cAMP], the “failure temperature compared with controls” value ([1]; PKA inhibitor, data not shown) was “no significant differences” and the “recovery time compared with controls” value ([1]; PKA inhibitor, data not shown) was “no significant differences”.

In the case of `Nc1nc2c(nc(Br)n2[C@@H]2O[C@@H]3COP(=O)(O)O[C@H]3[C@H]2O)c(=O)[nH]1` [8-Bromo cGMP, 8-bromo-guanosine 3′,5′-cyclic monophosphate], the “thermotolerance of neural function” value [1] is reported as “did not increase the thermotolerance of the circuit” and the “effect on protective effects of heat shock preconditioning” value ([1]; 40 μM, HS animals (3 hr at 45° C.)) is reported as “abolished the protective effects of heat shock preconditioning”.

In the case of `COC(=O)[C@@]1(OC)C[C@H]2O[C@]1(C)n1c3ccccc3c3c4c(c5c6ccccc6n2c5c31)C(=O)N(C)C4` [KT5823], the “thermotolerance of neural function” value [1] is reported as “increased the thermotolerance of neural function”, the “acute effect of injection on ventilatory rhythm frequency, burst duration or duty cycle” value ([1]; 1 μM pressure injection, data not shown) is reported as “no acute effect” and the “preparations with arrhythmias before failure” value ([1]; during temperature ramp, controls 60%) is reported as 11%. For the same molecule, the “thermal protection of the circuit, pretreated” value ([2]; 25 nL of 1 μM injected 10 minutes before increasing temperature) was “thermoprotection and rapid recovery of the circuit was observed”, the “thermal protection of the circuit, acutely treated” value ([2]; one 25 nL dose injected during temperature ramp 3 min. before failure) was “extremely rapid and equally pronounced thermal protection of the circuit was observed” and the “time to recovery of ventilatory motor pattern after failure” value ([2]; pretreated: 25 nL of 1 μM injected into ventilatory neuropil 10 min before temperature ramp, return to room temperature at failure) was 62.3 ± 13.4 s.
